Reference: patent publication US11352322B2, “Cyclopropyl-amide compounds as dual LSD1/HDAC inhibitors” (Jubilant Epicore LLC, priority 2016, dated 2022)
Counter-ions that a name gives are not always drawn. Like-named read-outs stand apart in the source and are kept apart here.

Legend:
[1] = Metabolic stability in liver microsomes, MLM; details: 1 μM, NADPH
Protocol: (§4) The microsomal suspension was prepared by adding liver microsomes to 100 mM potassium phosphate buffer (pH7.4) to give a final protein concentration of 0.5 mg/mL. The stock solution of NCE (10 mM in DMSO) was added to the microsomes to provide a final concentration of 1 μM. […] Samples were vortexed and centrifuged at 5,000 rpm for 10 min to remove proteins. Supernatant were analyzed on LC-MS/MS.

MV-4-11 = assay: cells; details: Homo sapiens, MV4-11, 144 h, read-out: Anticancer profileration EC50 MV-4-11
Protocol: (§1) Anticancer Activity: Alamar Blue Assay
(§2) Cells were seeded at 5000 cells/per well in 96-well tissue culture plate and incubated at 37° C./5% CO2. After 16-24 hours, fresh media was added to the wells. Compounds were then (1% DMSO conc.) added to the cells at 10 concentrations ranging from 10-0.0005 uM prepared in 3-fold serial dilutions. […] Alamar Blue™ reagent was added and incubated for 1-3 hours at 37° C./5% CO2. Plates were read on fluorescence reader at 540 nm excitation, 590 nm emission wave lengths.
(§3) As described above, compounds were tested for anticancer activities in different tumor cell lines and GI50 were determined.

OCI-AML3 = assay: cells; details: Homo sapiens, OCI-AML-3, 144 h, read-out: Anticancer profileration EC50 OCI-AML3
Protocol: as §1, §2, §3

HEL-92.1.7 = assay: cells; details: Homo sapiens, HEL 92.1.7, 144 h, read-out: Anticancer profileration EC50 HEL-92.1.7
Protocol: as §1, §2, §3

MDAMB231 = assay: cells; details: Homo sapiens, MDA-MB-231, 144 h, read-out: Anticancer profileration EC50 MDAMB231
Protocol: as §1, §2, §3

A375 = assay: cells; details: Homo sapiens, A-375, 144 h, read-out: Anticancer profileration EC50 A375
Protocol: as §1, §2, §3

[2] = Metabolic stability in liver microsomes, HLM; details: 1 μM, NADPH
Protocol: as §4

CCRF-CEM = assay: cells; details: Homo sapiens, 144 h, read-out: Anticancer profileration EC50 CCRF-CEM
Protocol: as §1
Cells were seeded at 5000 cells/per well in 96-well tissue culture plate and incubated at 37° C./5% CO2. After 16-24 hours, fresh media was added to the wells. Compounds were then (1% DMSO conc.) added to the cells at 10 concentrations ranging from 10-0.0005 uM prepared in 3-fold serial dilutions. Cells were incubated for 68-72 h at 37° C./5% CO2. Alamar Blue™ reagent was added and incubated for 1-3 hours at 37° C./5% CO2. Plates were read on fluorescence reader at 540 nm excitation, 590 nm emission wave lengths.
as §3

[3] = target: HDAC6 human recombinant enzyme (Homo sapiens (Human), UniProt Q9UBN7); assay: Histone Deacetylase Assay (BPS Biosciences), HDAC6; type: biochemical
Description: Histone Deacetylase Assay (BPS Biosciences)
Histone deacetylase assay was done as per manufacturer's instructions.

LSD1 = LSD1 (Homo sapiens (Human), UniProt O60341); assay: TR-FRET Assay for LSD1; details: read-out: LSD1 IC50
Protocol: TR-FRET Assay for LSD1 (Perkin Elmer)
Tranylcypromine (TCP), LSD1 inhibitor was procured from Selleckchem. […] Stop Solution containing 300 μM tranylcypromine in 1× LANCE Detection Buffer was added to the wells and incubated for 5 min at RT. Then, Detection mix containing 2 nM Eu-Ab and 50 nM ULight-Streptavidin in 1× LANCE Detection Buffer was prepared and added to the reaction mix. This mixture was incubated for 1 hour at room temperature.

MM1S = assay: Anticancer activity: Alamar Blue assay, MM1S; type: cell-based; details: Homo sapiens, MM1.S, read-out: MM1S EC50
[4] = In vivo PK studies in mice; design: species or system Male Balb/C mice; details: for C0 / Vd / Cmax / clearance / half-life / bioavailability: male, Balb/C, mouse, plasma; for clearance: read-out: Cl IV
Protocol: In Vivo PK Studies in Mice
All the animal experiments were approved by Institutional Animal Ethical Committee (IAEC/JDC/2015/72). Male Balb/C mice (n=24) were procured from Vivo Biotech, Hyderabad, India. The animals were housed in Jubilant Biosys animal house facility in a temperature (22±2° C.) and humidity (30-70%) controlled room (15 air changes/hour) with a 12:12 h light:dark cycles, had free access to rodent feed (Altromin Spezialfutter GmbH & Co. KG., Im Seelenkamp 20, D-32791, Lage, Germany) and water for one week before using for experimental purpose. Following ˜4 h fast (during the fasting period animals had free access to water) animals were divided into two groups (n=12/group). […] Post-dosing serial blood samples (100 μL, sparse sampling was done and at each time point three mice were used for blood sampling) were collected using Micropipettes (Microcaps®; catalogue number: 1-000-0500) through tail vein into polypropylene tubes containing K2.EDTA solution as an anti-coagulant at 0.25, 0.5, 1, 2, 4, 8, 10 and 24 (for oral study) and 0.12, 0.25, 0.5, 1, 2, 4, 8 and 24 (for intravenous study). Plasma was harvested by centrifuging the blood using Biofuge (Hereaus, Germany) at 1760 g for 5 min and stored frozen at −80±10° C. until analysis. Animals were allowed to access feed 2 h post-dosing.
Plasma concentration-time data of the compound was analyzed by non-compartmental method using Phoenix WinNonlin Version 6.3 (Pharsight Corporation, Mountain View, Calif.).

[5] = IV 2 mg/kg, read-out: t1/2 IV (converted)
[6] = PO 10 mg/kg, read-out: t1/2 PO (converted)
[7] = PO 50 mg/kg, read-out: t1/2 PO (converted)

HDAC6 human recombinant enzyme, sequence (Q9UBN7 whole entry): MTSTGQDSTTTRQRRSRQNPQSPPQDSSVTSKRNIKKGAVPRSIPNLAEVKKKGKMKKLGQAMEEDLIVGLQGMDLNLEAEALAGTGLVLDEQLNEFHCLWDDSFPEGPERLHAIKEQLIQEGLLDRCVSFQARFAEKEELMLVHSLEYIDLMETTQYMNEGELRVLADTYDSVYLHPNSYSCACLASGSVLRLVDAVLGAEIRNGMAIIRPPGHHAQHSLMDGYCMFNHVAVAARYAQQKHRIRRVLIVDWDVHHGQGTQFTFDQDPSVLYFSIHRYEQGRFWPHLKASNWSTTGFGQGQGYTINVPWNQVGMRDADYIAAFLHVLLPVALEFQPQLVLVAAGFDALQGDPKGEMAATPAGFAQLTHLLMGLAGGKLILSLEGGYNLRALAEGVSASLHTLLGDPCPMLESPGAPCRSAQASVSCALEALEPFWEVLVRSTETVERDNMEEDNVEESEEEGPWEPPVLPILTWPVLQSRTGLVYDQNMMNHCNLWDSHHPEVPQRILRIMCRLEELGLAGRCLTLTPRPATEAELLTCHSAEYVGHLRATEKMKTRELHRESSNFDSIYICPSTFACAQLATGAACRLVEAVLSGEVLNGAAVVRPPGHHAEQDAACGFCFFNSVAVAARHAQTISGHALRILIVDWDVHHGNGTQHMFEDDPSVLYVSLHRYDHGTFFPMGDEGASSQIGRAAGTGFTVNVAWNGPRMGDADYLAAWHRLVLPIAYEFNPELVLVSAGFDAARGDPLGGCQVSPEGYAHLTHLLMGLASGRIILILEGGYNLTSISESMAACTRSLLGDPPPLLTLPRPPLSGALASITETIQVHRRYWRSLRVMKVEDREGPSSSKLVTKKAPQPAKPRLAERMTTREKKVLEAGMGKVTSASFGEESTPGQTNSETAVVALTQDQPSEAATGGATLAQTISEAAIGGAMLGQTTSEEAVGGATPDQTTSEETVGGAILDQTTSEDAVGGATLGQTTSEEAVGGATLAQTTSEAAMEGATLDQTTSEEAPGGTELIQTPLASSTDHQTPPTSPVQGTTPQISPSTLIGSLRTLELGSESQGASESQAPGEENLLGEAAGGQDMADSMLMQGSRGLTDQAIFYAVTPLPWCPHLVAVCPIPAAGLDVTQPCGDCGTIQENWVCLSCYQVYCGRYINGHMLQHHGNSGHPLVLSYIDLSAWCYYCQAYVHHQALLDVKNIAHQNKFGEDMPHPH

## O=C(NO)c1ccc(CCCN2CCC(CNC3CC3c3ccccc3)CC2)cc1 (stereo not drawn) [Example 43, N-hydroxy-4-(3-(4-(((2-phenylcyclopropyl)amino)methyl)piperidin-1-yl)propyl)benzamide TFA Salt]
[1]
  Metabolic stability MLM % remaining in 30 min: 56%
MV-4-11
  EC50: 2 nM
OCI-AML3
  EC50: 115 nM
HEL-92.1.7
  EC50: 1 nM
MDAMB231
  EC50: 747 nM
A375
  EC50: 1030 nM
[2]
  Metabolic stability HLM % remaining in 30 min: 40%
CCRF-CEM
  EC50: 493 nM

## COc1ccc(C2CC2NCc2cn3c(n2)CN(CCCc2ccc(C(=O)NO)cc2)CC3)cc1 (stereo not drawn) [Example 71, N-hydroxy-4-(3-(2-(((2-(4-methoxyphenyl)cyclopropyl)amino)methyl)-5,6-dihydroimidazo[1,2-a]pyrazin-7(8H)-yl)propyl)benzamide TFA Salt]
[1]
  Metabolic stability MLM % remaining in 30 min: < 5%
[3]
  IC50: 28 nM
MV-4-11
  EC50: 990 nM
OCI-AML3
  EC50: 732 nM
HEL-92.1.7
  EC50: 6050 nM
[2]
  Metabolic stability HLM % remaining in 30 min: 73%
LSD1
  IC50: 1100 nM

## O=C(NO)c1ccc(CCCN2CCC(CNC3CC3c3ccc(-c4ccc(Cl)cc4)cc3)CC2)cc1 (stereo not drawn) [Example 56, 4-(3-(4-(((2-(4′-chloro-[1,1′-biphenyl]-4-yl)cyclopropyl)amino)methyl)piperidin-1-yl)propyl)-N-hydroxybenzamide TFA Salt]
[1]
  Metabolic stability MLM % remaining in 30 min: 75%
[3]
  IC50: 19 nM
MV-4-11
  EC50: 7 nM
OCI-AML3
  EC50: 10 nM
HEL-92.1.7
  EC50: 10 nM
[2]
  Metabolic stability HLM % remaining in 30 min: 87%
LSD1
  IC50: 2 nM

## COc1ccc(C2CC2NCC2CCN(CCCc3ccc(C(=O)NO)cc3)CC2)cc1 (stereo not drawn) [Example 51, N-hydroxy-4-(3-(4-(((2-(4-methoxyphenyl)cyclopropyl)amino)methyl)piperidin-1-yl)propyl)benzamide TFA Salt]
[1]
  Metabolic stability MLM % remaining in 30 min: 91%
[3]
  IC50: 38 nM
MV-4-11
  EC50: 31 nM
OCI-AML3
  EC50: 14 nM
HEL-92.1.7
  EC50: 3 nM
[2]
  Metabolic stability HLM % remaining in 30 min: 74%
LSD1
  IC50: 6 nM

## O=C(NO)c1ccc(CCCN2CCn3cc(CNC4CC4c4ccc(F)cc4)nc3C2)cc1 (stereo not drawn) [Example 72, 4-(3-(2-(((2-(4-fluorophenyl)cyclopropyl)amino)methyl)-5,6-dihydroimidazo[1,2-a]pyrazin-7(8H)-yl)propyl)-N-hydroxybenzamide TFA Salt]
[1]
  Metabolic stability MLM % remaining in 30 min: < 5%
[3]
  IC50: 18 nM
MV-4-11
  EC50: 978 nM
OCI-AML3
  EC50: 573 nM
HEL-92.1.7
  EC50: 4800 nM
MM1S
  EC50: 343 nM
[2]
  Metabolic stability HLM % remaining in 30 min: 67%
LSD1
  IC50: 730 nM

## O=C(NO)c1ccc(/C=C/C(=O)N2CCC(CN[C@@H]3C[C@H]3c3ccc(F)cc3)CC2)cc1 [Example 115A, 4-((E)-3-(4-((((1R,2S)-2-(4-fluorophenyl)cyclopropyl)amino)methyl)piperidin-1-yl)-3-oxoprop-1-en-1-yl)-N-hydroxybenzamide TFA Salt]
[1]
  Metabolic stability MLM % remaining in 30 min: 90%
[3]
  IC50: 50 nM
MM1S; MM1S cells
  EC50: 77 nM
[2]
  Metabolic stability HLM % remaining in 30 min: 59%
LSD1
  IC50: 225 nM
[4]; IV 2 mg/kg
  AUC IV: 301 ng/mL/h
  C0: 452 ng/mL
  Vd: 8 L/kg
  clearance: 108 mL/min/kg
[4]; PO 10 mg/kg
  AUC PO: 638 ng/mL/h
[4]; IV 2 mg/kg, read-out: CMax IV
  Cmax: 452 ng/mL
[4]; [5]
  half-life: 0.87 h
[4]; PO 10 mg/kg, read-out: CMax PO
  Cmax: 354 ng/mL
[4]; [6]
  half-life: 2.78 h
[4]; dose IV/PO 2/10 mg/kg
  bioavailability: 43%

## O=C(NO)c1ccc(CCCN2CCC(CNC3CC3c3ccc(-c4cncnc4)cc3)CC2)cc1 (stereo not drawn) [Example 61, N-hydroxy-4-(3-(4-(((2-(4-(pyrimidin-5-yl)phenyl)cyclopropyl)amino)methyl)piperidin-1-yl)propyl)benzamide TFA Salt]
[1]
  Metabolic stability MLM % remaining in 30 min: 66%
[3]
  IC50: 121 nM
MM1S; MM1S cells
  EC50: 49 nM
[2]
  Metabolic stability HLM % remaining in 30 min: 77%
LSD1
  IC50: 12 nM
[4]; IV 10 mg/kg
  AUC IV: 1287 ng/mL/h
  C0: 5340 ng/mL
  Vd: 30 L/kg
  clearance: 125 mL/min/kg
[4]; PO 50 mg/kg
  AUC PO: 1920 ng/mL/h
[4]; IV 10 mg/kg, read-out: CMax IV
  Cmax: 2760 ng/mL
[4]; IV 10 mg/kg, read-out: t1/2 IV (converted)
  half-life: 2.8 h
[4]; PO 50 mg/kg, read-out: CMax PO
  Cmax: 771 ng/mL
[4]; [7]
  half-life: 1.48 h
[4]; dose IV/PO 10/50 mg/kg
  bioavailability: 30%

## O=C(NO)c1cnc(N2CCC(NC3CC3c3ccc(OCc4ccc(F)cc4)cc3)CC2)nc1 (stereo not drawn) [Example 12, 2-(4-((2-(4-((4-fluorobenzyl)oxy)phenyl)cyclopropyl)amino)piperidin-1-yl)-N-hydroxypyrimidine-5-carboxamide TFA Salt]
[1]
  Metabolic stability MLM % remaining in 30 min: 85%
MV-4-11
  EC50: 9 nM
OCI-AML3
  EC50: 41 nM
HEL-92.1.7
  EC50: 4 nM
MDAMB231
  EC50: 1300 nM
A375
  EC50: 2800 nM
MM1S
  EC50: 11 nM
[2]
  Metabolic stability HLM % remaining in 30 min: 95%
CCRF-CEM
  EC50: 375 nM

## Cn1cc(-c2ccc(C3CC3NCC3CCN(Cc4ccc(C(=O)Nc5ccccc5N)cc4)CC3)cc2)cn1 (stereo not drawn) [Example 142, N-(2-aminophenyl)-4-((4-(((2-(4-(1-methyl-1H-pyrazol-4-yl)phenyl)cyclopropyl)amino)methyl)piperidin-1-yl)methyl)benzamide TFA Salt]
[1]
  Metabolic stability MLM % remaining in 30 min: 52%
[3]
  IC50: > 10000 nM
MM1S; MM1S cells
  EC50: 120 nM
[2]
  Metabolic stability HLM % remaining in 30 min: 72%
LSD1
  IC50: 12 nM
[4]; IV 2 mg/kg
  AUC IV: 357 ng/mL/h
  C0: 198 ng/mL
  Vd: 25 L/kg
  clearance: 88 mL/min/kg
[4]; PO 50 mg/kg
  AUC PO: 3217 ng/mL/h
[4]; IV 2 mg/kg, read-out: CMax IV
  Cmax: 150 ng/mL
[4]; [5]
  half-life: 12.6 h
[4]; PO 50 mg/kg, read-out: CMax PO
  Cmax: 555 ng/mL
[4]; [7]
  half-life: 6.7 h
[4]; dose IV/PO 2/50 mg/kg
  bioavailability: 36%

## O=C(NO)c1ccc(CCCN2CCC(CNC3CC3c3ccc(-c4ccc(F)cc4)cc3)CC2)cc1 (stereo not drawn) [Example 57, 4-(3-(4-(((2-(4′-fluoro-[1,1′-biphenyl]-4-yl)cyclopropyl)amino)methyl)piperidin-1-yl)propyl)-N-hydroxybenzamide TFA Salt]
[1]
  Metabolic stability MLM % remaining in 30 min: 75%
[3]
  IC50: 59 nM
[2]
  Metabolic stability HLM % remaining in 30 min: 92%
LSD1
  IC50: 21 nM
[4]; IV 2 mg/kg
  AUC IV: 169 ng/mL/h
  C0: 260 ng/mL
  Vd: 28 L/kg
  clearance: 190 mL/min/kg
[4]; PO 10 mg/kg
  AUC PO: 677 ng/mL/h
[4]; IV 2 mg/kg, read-out: CMax IV
  Cmax: 254 ng/mL
[4]; [5]
  half-life: 1.71 h
[4]; PO 10 mg/kg, read-out: CMax PO
  Cmax: 217 ng/mL
[4]; [6]
  half-life: 1.83 h
[4]; dose IV/PO 2/10 mg/kg
  bioavailability: 80%
